One data set addresses T1, human mGluR2 (Homo sapiens, UniProt Q14416).
T1 construct: expressed in transfected cells; host or cells: CHO cells (membrane preparation)
Kind of data set: [35S]GTPγS binding assay (PAM assay) using membranes from CHO cells transfected with the human mGluR2 receptor. Type of data set: biochemical. Particulars: in presence of glutamate at predetermined EC25 concentration, membranes containing human mGluR2, averages of duplicate values of 11-concentration response curves; for EC50: read-out: GTPγS -hR2 PAM pEC50 (converted). Here is the method:
The [^35S]GTPγS binding assay is a functional membrane-based assay used to study G-protein coupled receptor (GPCR) function whereby incorporation of a non-hydrolysable form of GTP, [^35S]GTPγS (guanosine 5′-triphosphate, labelled with […] ^35S), is measured.
CHO-cells were cultured to pre-confluence and stimulated with 5 mM butyrate for 24 hs, prior to washing in PBS (phosphate-buffered saline), and then collection by scraping in homogenisation buffer (50 mM Tris-HCl buffer, pH 7.4, 4° C.). Cell lysates were homogenized briefly (15 s) using an ultra-turrax homogenizer. The homogenate was centrifuged at 23 500×g for 10 min. and the supernatant discarded. The pellet was resuspended in 5 mM Tris-HCl, pH 7.4 and centrifuged again (30 000×g, 20 min., 4° C.). The final pellet was resuspended in 50 mM HEPES, pH 7.4 and stored at −80° C. in appropriate aliquots before use. Protein concentration was determined by the Bradford method (Bio-Rad, USA) with bovine serum albumin as standard.
Measurement of mGluR2 positive allosteric modulatory activity of test compounds in membranes containing human mGluR2 was performed using frozen membranes that were thawed and briefly homogenised prior to pre-incubation in 96-well microplates (15 μg/assay well, 30 minutes, 30° C.) in assay buffer (50 mM HEPES pH 7.4, 100 mM NaCl, 3 mM MgCl2, 50 μM GDP, 10 μg/ml saponin,) with increasing concentrations of positive allosteric modulator (from 0.3 nM to 50 μM) and either a minimal pre-determined concentration of glutamate (PAM assay), or no added glutamate. […] After addition of [^35S]GTPγS (0.1 nM, f.c.) to achieve a total reaction volume of 200 μl, microplates were shaken briefly and further incubated to allow [^35S]GTPγS incorporation on activation (30 minutes, 30° C.). The reaction was stopped by rapid vacuum filtration over glass-fibre filter plates (Unifilter 96-well GF/B filter plates, Perkin-Elmer, Downers Grove, USA) microplate using a 96-well plate cell harvester (Filtermate, Perkin-Elmer, USA), and then by washing three times with 300 μl of ice-cold wash buffer (Na2PO4.2H2O 10 mM, NaH2PO4.H2O 10 mM, pH=7.4). Filters were then air-dried, and 40 μl of liquid scintillation cocktail (Microscint-O) was added to each well, and membrane-bound [^35S]GTPγS was measured in a 96-well scintillation plate reader (Top-Count, Perkin-Elmer, USA). Non-specific [^35S]GTPγS binding is determined in the presence of cold 10 μM GTP. Each curve was performed at least once using duplicate sample per data point and at 11 concentrations.
The concentration-response curves of representative compounds of the present invention in the presence of added EC25 of mGluR2 agonist glutamate to determine positive allosteric modulation (PAM), were generated using the Prism GraphPad software (Graph Pad Inc, San Diego, USA).

T1 sequence (Q14416 19-872): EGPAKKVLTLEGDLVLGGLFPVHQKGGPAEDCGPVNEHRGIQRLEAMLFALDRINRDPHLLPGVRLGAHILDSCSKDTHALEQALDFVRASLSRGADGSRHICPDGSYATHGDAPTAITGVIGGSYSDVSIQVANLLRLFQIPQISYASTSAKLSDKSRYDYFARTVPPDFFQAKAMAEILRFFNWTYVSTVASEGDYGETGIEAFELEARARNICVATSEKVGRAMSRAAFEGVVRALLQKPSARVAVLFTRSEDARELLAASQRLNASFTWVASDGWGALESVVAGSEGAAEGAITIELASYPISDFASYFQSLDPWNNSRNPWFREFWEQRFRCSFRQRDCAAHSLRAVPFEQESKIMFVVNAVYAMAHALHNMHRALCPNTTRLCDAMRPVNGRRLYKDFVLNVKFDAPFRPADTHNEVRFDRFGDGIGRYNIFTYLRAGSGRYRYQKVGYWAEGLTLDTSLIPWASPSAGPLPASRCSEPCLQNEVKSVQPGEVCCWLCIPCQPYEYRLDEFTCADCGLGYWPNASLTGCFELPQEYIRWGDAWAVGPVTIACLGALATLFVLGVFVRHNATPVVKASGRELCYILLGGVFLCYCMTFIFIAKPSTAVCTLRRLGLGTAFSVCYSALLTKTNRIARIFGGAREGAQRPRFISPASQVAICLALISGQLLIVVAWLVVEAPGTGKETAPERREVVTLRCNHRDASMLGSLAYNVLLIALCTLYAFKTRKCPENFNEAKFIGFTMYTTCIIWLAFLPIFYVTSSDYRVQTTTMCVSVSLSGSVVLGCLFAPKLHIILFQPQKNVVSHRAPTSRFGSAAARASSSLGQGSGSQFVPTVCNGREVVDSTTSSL

With `C[C@]1(O)CC[C@@H](n2ccc3cc(-c4ccn5c(CC(F)(F)F)cnc5c4C#N)ccc32)CC1` [Compound 22], the melting point stood at 171.1 °C. Besides, the EC50 on human mGluR2 was 501 nM.

On to `N#Cc1c(-c2cc(Cl)c3c(ccn3CC3CC3)c2)ccn2c(CC(F)(F)F)cnc12` [Compound 11], for which the melting point worked out at 175.3 °C. Besides, the “GTPγS -hR2 PAM pEC50” value on human mGluR2 came out at 6.96.

Molecule `FC(F)(F)Cc1cnc2c(Cl)c(-c3cc(Cl)c4[nH]ccc4c3)ccn12` [Compound 2, 8-Chloro-7-(7-chloro-M-indol-5-yl)-3-(2,2,2-trifluoroethyl)-imidazo[1,2-a]-pyridine] yielded a melting point of 182.8 °C. The “GTPγS -hR2 PAM pEC50” value at human mGluR2 came to 7.07.

As for `N#Cc1c(-c2ccc3c(ccn3-c3ccc(F)cc3)c2)ccn2c(CC(F)(F)F)cnc12` [Compound 29], the melting point worked out at 197.3 °C. The EC50 at human mGluR2 is 200 nM.

Consider `N#Cc1c(-c2ccc3c(ccn3Cc3ccncc3)c2)ccn2c(CC(F)(F)F)cnc12` [Compound 27], for which the EC50 at human mGluR2 was 117 nM.

In the case of `N#Cc1c(-c2ccc3c(ccn3-c3ccccc3)c2)ccn2c(CC(F)(F)F)cnc12` [Compound 28], the EC50 on human mGluR2 was 219 nM.

`N#Cc1c(-c2ccc3c(c2)OCCN3CC2CC2)ccn2c(CC(F)(F)F)cnc12` [Compound 12]: the EC50 on human mGluR2 is 117 nM.

The molecule `C[C@]1(O)CC[C@H](n2ccc3cc(-c4ccn5c(CC(F)(F)F)cnc5c4Cl)ccc32)CC1` [Compound 4, trans-4-[5-[8-Chloro-3-(2,2,2-trifluoroethyl)-imidazo[1,2-a]pyridin-7-yl]-1H-indol-1-yl-]-1-methyl-cyclohexanol] displayed a melting point of 262.2 °C. Moreover, at human mGluR2, the EC50 was 129 nM.

In the case of `Cn1ccc2cc(-c3ccn4c(CC(F)(F)F)cnc4c3C#N)cc(Cl)c21` [Compound 10], the melting point was 172 °C.

In the case of `N#Cc1c(-c2ccc3c(ccn3[C@H]3CC[C@H](O)CC3)c2)ccn2c(CC(F)(F)F)cnc12` [Compound 16], the EC50 on human mGluR2 was 245 nM.

Take `CC(C)OCCn1ccc2cc(-c3ccn4c(CC(F)(F)F)cnc4c3C#N)ccc21` [Compound 14]: at human mGluR2, the EC50 was 813 nM.

For the molecule `CN1CCOc2cc(-c3ccn4c(CC(F)(F)F)cnc4c3C#N)ccc21` [Compound 15], the EC50 on human mGluR2 is 575 nM.

For the molecule `FC(F)(F)Cc1cnc2c(Cl)c(-c3cc(Cl)c4c(ccn4CC4CC4)c3)ccn12` [Compound 18], the melting point was determined as 151.3 °C. The “GTPγS -hR2 PAM pEC50” value at human mGluR2 was determined as 6.60.

Take `Cc1cc(Cn2ccc3cc(-c4ccn5c(CC(F)(F)F)cnc5c4C#N)ccc32)ccn1` [Compound 30]: the EC50 at human mGluR2 was 33.9 nM.

Take `Cn1ccc2cc(-c3ccn4c(CC(F)(F)F)cnc4c3C#N)ccc21` [Compound 7]: the “GTPγS -hR2 PAM pEC50” value on human mGluR2 was 6.64.

For the molecule `FC(F)(F)Cc1cnc2c(Cl)c(-c3ccc4c(ccn4-c4ncccn4)c3)ccn12` [Compound 25, 8-Chloro-7-(1-pyrimidin-2-yl-1H-indol-5-yl)-3-(2,2,2-trifluoro-ethyl)-imidazo[1,2-a]pyridine], at human mGluR2, the EC50 was 331 nM.

In turn, `N#Cc1c(-c2ccc3c(ccn3CC3CC3)c2)ccn2c(CC(F)(F)F)cnc12` [Compound 13] yielded a melting point of 117.9 °C.

For the molecule `N#Cc1c(-c2cc(Cl)c3c(ccn3C3CCOCC3)c2)ccn2c(CC(F)(F)F)cnc12` [Compound 1, 7-[7-Chloro-1-(tetrahydro-pyran-4-yl)-1H-indol-5-yl]-3-(2,2,2-trifluoroethyl) imidazo[1,2-a]pyridine-8-carbonitrile], the EC50 on human mGluR2 is 380 nM.

In the case of `O[C@H]1CC[C@H](n2ccc3cc(-c4ccn5c(CC(F)(F)F)cnc5c4Cl)ccc32)CC1` [Compound 3], the melting point came out at 131.6 °C. The EC50 on human mGluR2 was 166 nM.

As to `CC(C)(O)Cn1ccc2cc(-c3ccn4c(CC(F)(F)F)cnc4c3C#N)ccc21` [Compound 9], the EC50 on human mGluR2 is 1070 nM.

As for `N#Cc1c(-c2ccc3c(ccn3C3CCOCC3)c2)ccn2c(CC(F)(F)F)cnc12` [Compound 6], the melting point is 232.9 °C.

With `OC1CCC(N2CCOc3cc(-c4ccn5c(CC(F)(F)F)cnc5c4Cl)ccc32)CC1` (mixture of isomers) [Compound 5, 4-[7-[8-Chloro-3-(2,2,2-trifluoro-ethyl)-imidazo[1,2-a]pyridin-7-yl]-2,3-dihydro-4H-1,4-benzoxazin-4-yl]-cyclohexanol], the EC50 at human mGluR2 is 112 nM.

In the case of `FC(F)(F)Cc1cnc2c(Cl)c(-c3ccc4c(ccn4-c4ccccn4)c3)ccn12` [Compound 24], the EC50 on human mGluR2 is 468 nM.

`C[C@]1(O)CC[C@H](n2ccc3cc(-c4ccn5c(CC(F)(F)F)cnc5c4C#N)ccc32)CC1` [Compound 21] came in with a melting point of 138.6 °C. Moreover, on human mGluR2, the EC50 was 309 nM.

With `N#Cc1c(-c2ccc3c(c2)OCCN3[C@H]2CC[C@H](O)CC2)ccn2c(CC(F)(F)F)cnc12` [Compound 19], the EC50 at human mGluR2 is 191 nM.
